Measured values reported in patent US5985822A, “Inhibition of glial cell proliferation with N-CAM homophilic peptides” (The Scripps Research Institute, priority 1995, dated 1999).
Like-named read-outs stand apart in the source and are kept apart here.

Key:
[1] = system: rat forebrain astrocytes in primary culture; experiment: Astrocyte proliferation assay ([3H]-thymidine incorporation normalized to [35S]-methionine); assay type: cell-based; conditions: for Drug Alone: means of triplicate (Table 5); for effect of drug on the ability of N-CAM to inhibit astrocyte proliferation (in words): drug in the presence of N-CAM; for effect of oligonucleotide preincubation on inhibition of proliferation by N-CAM: 200 nM oligonucleotide 48 hours before 2 μg/ml N-CAM; for effect of oligonucleotide alone on proliferation: 200 nM, no N-CAM added
Description: Primary cultures of astrocytes were prepared from the forebrains of 4-5 day old neonatal rats. After decapitation and removal of the forebrains from the skull, the meninges were carefully peeled off, and forebrain tissue was triturated in sterile phosphate buffered saline (PBS) using firepolished pipettes. The resulting suspension of tissue fragments was incubated in Hank's balanced salt solution (Gibco BRL) with 2.5 mg/ml trypsin, 1 mM EDTA and 0.1 mg/ml DNase (Boehringer) at 37° C. for 15 minutes. […] The pellet was resuspended in serum free medium (SFM) consisting of Dulbecco's Modified Eagle Medium (D-MEM), 2 mM L-glutamine, 50 U/ml penicillin G sodium and 50 μg/ml streptomycin sulfate (all from Gibco BRL) supplemented by 10% (vol/vol) fetal bovine serum (FBS). The cells were transferred to a standard 100 mm tissue culture dish (Falcon) and incubated at 37° C. for 1-2 hours. After mild shaking, the supernatant containing unattached cells was transferred to a 100 mm collagen-coated dish. […] Cell samples were checked regularly for the expression of GFAP, a marker for astrocytes.
After cell attachment, the culture medium was exchanged for SFM. In antisense experiments, oligonucleotides were added at the same time (T=0). […] After another 12 hours (at T=60), [^3 H]-thymidine (New England Nuclear, 20 Ci/mmol) was added (0.38 μM, 10 μCi/ml). Following an additional 12 hours (T=72), the wells were drained, counts precipitated by ice-cold […] trichloroacetic acid, and the plates left to dry. Counts were solubilized overnight by adding 100 μl 1 N KOH to each well, neutralized with 100 μl 1 N HCl, transferred to liquid scintillation vials and counted in 3 ml of Beckman Ready Safe liquid scintillation cocktail on a Packard 1600 TR counter. […] In this paper, proliferation is expressed as [^3 H]-thymidine incorporation normalized to [35]-methionine incorporation and calculated as [^3 H] dpm/ [35] dpm.

N-CAM = experiment: Levels of N-CAM expression in astrocytes by Western blotting (antisense experiments); assay type: cell-based, rat; conditions: oligonucleotide added for 48 hours
Description: The amounts of N-CAM present in astrocytes were quantified by Western blotting. Cultures were grown as described and cellular material was lysed in buffer (phosphate buffered saline, pH 7.4, containing 0.5% NP-40, 350 μg/ml PMSF, 2 μg/ml aprotinin, 0.5 μg/ml leupeptin, and 0.7 μg/ml pepstatin A) at 4° C. Standard Western blotting techniques were employed either using cell lysate directly or after N-CAM immunoprecipitation. [^125 I]-Immunolabeled N-CAM was estimated by densitometry on a Molecular Dynamics PhosporImager using ImageQuant software.
[…]. After deprotection, the oligonucleotides were purified using HPLC, ethanol precipitated, solubilized in distilled water and added to the culture medium at the indicated concentrations.

mastoparan
effect of drug on astrocyte proliferation (in words) [1]: stimulated astrocyte proliferation | Drug + Ig3 ([1]; drug 50 μM plus Ig3 2 μg/ml (Table 5)): 192.5 % of SFM Control | [3H]-thymidine incorporation, Drug + N-CAM ([1]; drug 50 μM plus N-CAM 2 μg/ml (Table 4)): 205 ± 30 % SFM Ctrl | Drug + N-CAM ([1]; drug 50 μM plus N-CAM 2 μg/ml (Table 5)): 202.5 % of SFM Control | [3H]-thymidine incorporation, Drug alone ([1]; drug 50 μM, 2×10^5 cells/ml (Table 4)): 213 ± 47 % SFM Ctrl | Drug Alone ([1]; drug 50 μM, 2×10^5 cells/ml): 210 % of SFM Control | effect of drug on the ability of N-CAM to inhibit astrocyte proliferation (in words) [1]: not inhibited by the concentration of N-CAM used

COC(=O)C=Cc1cc(O)ccc1O [Methyl 2,5-dihydroxycinnamate, methyl 2,5-dihydroxycinnamate]
Drug + Ig3 ([1]; drug 0.25 μg/ml plus Ig3 2 μg/ml (Table 5)): 59 % of SFM Control | Drug + N-CAM ([1]; drug 0.25 μg/ml plus N-CAM 2 μg/ml (Table 5)): 60 % of SFM Control | Drug Alone ([1]; drug 0.25 μg/ml, 2×10^5 cells/ml): 65 % of SFM Control

C[C@]12O[C@H](C[C@]1(O)C(=O)O)n1c3ccccc3c3c4c(c5c6ccccc6n2c5c31)CNC4=O [K252b]
[3H]-thymidine incorporation, Drug + N-CAM ([1]; drug 100 nM plus N-CAM 2 μg/ml): 85 ± 5 % SFM Ctrl | [3H]-thymidine incorporation, Drug alone ([1]; drug 100 nM, 2×10^5 cells/ml): 98 ± 17 % SFM Ctrl | [3H]-thymidine incorporation, Drug + N-CAM ([1]; drug 200 nM plus N-CAM 2 μg/ml): 64 ± 1 % SFM Ctrl | [3H]-thymidine incorporation, Drug alone ([1]; drug 200 nM, 2×10^5 cells/ml): 78 ± 15 % SFM Ctrl | effect of drug on the ability of N-CAM to inhibit astrocyte proliferation (in words) [1]: allowed the astrocytes cells to grow normally

5'-GUCCAUGUACAUCUAGUCAGUUGA-3 (chemistry not given here) [random antisense RNA]
effect on N-CAM expression (in words) (N-CAM): no effect on N-CAM expression | N-CAM level (sum of all molecular forms, mostly 140 kD and 120 kD) (N-CAM; mean ± S.E.M. (n)): 87 ± 18 % Control | effect of oligonucleotide preincubation on inhibition of proliferation by N-CAM [1]: no such effect | effect of oligonucleotide alone on proliferation [1]: no effect on proliferation

CCCCCCCCCCCCCC(=O)O[C@@H]1[C@@H](C)[C@@]2(O)[C@@H](C=C(CO)C[C@]3(O)C(=O)C(C)=C[C@@H]23)[C@@H]2C(C)(C)[C@]12OC(C)=O [PMA]
effect of drug on astrocyte proliferation (in words) [1]: strong mitogenic response | [3H]-thymidine incorporation, Drug alone ([1]; drug 10 nM, 2×10^5 cells/ml): 138 ± 16 % SFM Ctrl | [3H]-thymidine incorporation, Drug + N-CAM ([1]; drug 100 nM plus N-CAM 2 μg/ml): 228 % SFM Ctrl | [3H]-thymidine incorporation, Drug alone ([1]; drug 100 nM, 2×10^5 cells/ml): 268 ± 34 % SFM Ctrl

CCCCC/C=C\C/C=C\C/C=C\C/C=C\CCCC(=O)O [Arachidonic Acid, arachidonic acid]
[3H]-thymidine incorporation, Drug + N-CAM ([1]; drug 10 μM plus N-CAM 2 μg/ml): 60 ± 12 % SFM Ctrl | [3H]-thymidine incorporation, Drug alone ([1]; drug 10 μM, 2×10^5 cells/ml): 107 ± 10 % SFM Ctrl | effect of drug on the ability of N-CAM to inhibit astrocyte proliferation (in words) [1]: had no effect on the ability of N-CAM to inhibit astrocyte proliferation

bFGF: basic fibroblast growth factor, Upstate Biotechnology Incorporated
proliferation as compared to cultures in SFM ([1]; 20 ng/ml bFGF, n=12): 347±56%

calphostin C
effect of drug on astrocyte proliferation (in words) [1]: inhibits proliferation | [3H]-thymidine incorporation, Drug alone ([1]; drug 0.1 μM, 2×10^5 cells/ml): 111 ± 35 % SFM Ctrl | [3H]-thymidine incorporation, Drug alone ([1]; drug 0.5 μM, 2×10^5 cells/ml): 54 ± 35 % SFM Ctrl

5'-AGAUCCUUAG WUCGCAGCAUUGUA-3' (antisense AGAUCCUUAGUUCGCAGCAUUGUA; phosphorothioate linkages, further chemistry not given here) [N-CAM antisense RNA, phosphorothioate oligoribonucleotide complementary to position 205 to 228 of rat N-CAM]
effect on N-CAM expression (in words) (N-CAM): significantly reduced N-CAM expression | effect of oligonucleotide preincubation on inhibition of proliferation by N-CAM [1]: weaker inhibitory effect of N-CAM on proliferation | effect of oligonucleotide alone on proliferation [1]: no effect on proliferation

Pertussis Toxin
effect of drug on astrocyte proliferation (in words) [1]: slightly inhibited astrocyte proliferation | [3H]-thymidine incorporation, Drug + N-CAM ([1]; drug 1 μg/ml plus N-CAM 2 μg/ml): 57 ± 13 % SFM Ctrl | [3H]-thymidine incorporation, Drug alone ([1]; drug 1 μg/ml, 2×10^5 cells/ml): 67 ± 13 % SFM Ctrl | [3H]-thymidine incorporation, Drug + N-CAM ([1]; drug .5 μg/ml plus N-CAM 2 μg/ml): 53 ± 9 % SFM Ctrl | [3H]-thymidine incorporation, Drug alone ([1]; drug .5 μg/ml, 2×10^5 cells/ml): 74 ± 20 % SFM Ctrl | effect of drug on the ability of N-CAM to inhibit astrocyte proliferation (in words) [1]: N-CAM was still able to inhibit proliferation

C=C[C@@]1(C)CC(=O)[C@]2(O)[C@@]3(C)[C@@H](O)CCC(C)(C)[C@@H]3[C@H](O)[C@H](OC(C)=O)[C@@]2(C)O1 [Forskolin, forskolin]
[3H]-thymidine incorporation, Drug alone ([1]; drug 1 μM, 2×10^5 cells/ml): 73 ± 2 % SFM Ctrl | [3H]-thymidine incorporation, Drug alone ([1]; drug 10 μM, 2×10^5 cells/ml): 32 ± 6 % SFM Ctrl | effect of drug on astrocyte proliferation (in words) ([1]; drug alone, astrocyte cultures): blocks proliferation of astrocytes in culture

B1: N-CAM treated with neuraminidase: purified N-CAM treated with neuraminidase to remove sialic acid (protein, UniProt P13596 20-858, looked up)
Neural cell adhesion molecule …: LQVDIVPSQGEISVGESKFFLCQVAGDAKDKDISWFSPNGEKLSPNQQRISVVWNDDDSSTLTIYNANIDDAGIYKCVVTAEDGTQSEATVNVKIFQKLMFKNAPTPQEFKEGEDAVIVCDVVSSLPPTIIWKHKGRDVILKKDVRFIVLSNNYLQIRGIKKTDEGTYRCEGRILARGEINFKDIQVIVNVPPTVQARQSIVNATANLGQSVTLVCDADGFPEPTMSWTKDGEPIENEEEDDEKHIFSDDSSELTIRNVDKNDEAEYVCIAENKAGEQDASIHLKVFAKPKITYVENQTAMELEEQVTLTCEASGDPIPSITWRTSTRNISSEEKASWTRPEKQETLDGHMVVRSHARVSSLTLKSIQYTDAGEYICTASNTIGQDSQSMYLEVQYAPKLQGPVAVYTWEGNQVNITCEVFAYPSATISWFRDGQLLPSSNYSNIKIYNTPSASYLEVTPDSENDFGNYNCTAVNRIGQESLEFILVQADTPSSPSIDRVEPYSSTAQVQFDEPEATGGVPILKYKAEWKSLGEEAWHSKWYDAKEANMEGIVTIMGLKPETRYAVRLAALNGKGLGEISAATEFKTQPVREPSAPKLEGQMGEDGNSIKVNLIKQDDGGSPIRHYLVKYRALASEWKPEIRLPSGSDHVMLKSLDWNAEYEVYVVAENQQGKSKAAHFVFRTSAQPTAIPANGSPTAGLSTGAIVGILIVIFVLLLVVMDITCYFLNKCGLLMCIAVNLCGKAGPGAKGKDMEEGKAAFSKDESKEPIVEVRTEEERTPNHDGGKHTEPNETTPLTEPEKGPVETKSEPQESEAKPAPTEVKTVPNEATQTKENESKA
modifications: desialylated by neuraminidase
notes: purified N-CAM treated with neuraminidase to remove sialic acid
[3H]-thymidine incorporation vs. SFM control ([1]; 2 μg/ml, n=2): 24±4%

B2: N-CAM purified from embryonic chick brain: N-CAM purified from embryonic chick brain, which binds to rodent N-CAM (protein, UniProt P13590 20-1091, looked up)
Neural cell adhesion molecule …: LQVDIVPSQGEISVGESKFFLCQVAGEAKYKDISWFSPNGEKLTPNQQRISVVRNDDFSSTLTIYNANIDDAGIYKCVVSSVEEGDSEATVNVKIFQKLMFKNAPTPQEFKEGDDAVIVCDVVSSLPPTIIWKHKGRDVMLKKDVRFIVLSNNYLQIRGIKKTDEGTYRCEGRILARGEINFKDIQVIVNVPPSVRARQSTMNATANLSQSVTLACDADGFPEPTMTWTKDGEPIEQEDNEEKYSFNYDGSELIIKKVDKSDEAEYICIAENKAGEQDATIHLKVFAKPKITYVENKTAMELEDQITLTCEASGDPIPSITWKTSTRNISNEEKTLDGRIVVRSHARVSSLTLKEIQYTDAGEYVCTASNTIGQDSQAMYLEVQYAPKLQGPVAVYTWEGNQVNITCEVFAYPSAVISWFRDGQLLPSSNYSNIKIYNTPSASYLEVTPDSENDFGNYNCTAVNRIGQESSEFILVQADTPSSPSIDRVEPYSSTARVEFDEPEATGGVPILKYKAEWRALGEGEWHSRLYDAKEANVEGTITISGLKPETTYSVRLSAVNGKGVGEISLPSDFKTQPVREPSAPKLEGQMGEDGNSIKVNVIKQDDGGSPIRHYLIKYKAKHSSEWKPEIRLPSGIDHVMLKSLDWNAEYEVYVIAENQQGKSKPAHYAFRTSAQPTVIPASTSPTSGLGTAAIVGILIVIFVLLLVAVDVTCYFLNKCGLLMCIAVNLCGKSGPGAKGKDMEEGKAAFSKDESKEPIVEVRTEEERTPNHDGGKHTEPNETTPLTEPEHTADTAATVEDMLPSVTTGTTNSDTITETFATAQNSPTSETTTLTSSIAPPATAIPDSNAMSPGQATPAKAGASPVSPPPPSSTPKVAPLVDLSDTPSSAPATNNLSSSVLSNQGAVLSPSTVANMAETSKAAAGNKSAAPTPANLTSPPAPSEPKQEVSSTKSPEKEAAQPSTVKSPTETAKNPSNPKSEAASGGTTNPSQNEDFKMDEGTFKTPDIDLAKDVFAALGTTTPASVASGQARELASSTADSSVPAAPAKTEKTPVEDKSEVQATEIRHLQQK
effect on astrocyte proliferation (in words) ([1]; added to astrocyte cultures in SFM): also inhibited proliferation
